Experimental data published in US11180511B2, “Diagnosis, treatment and prevention of neurotensin receptor-related conditions” (Friedrich-Alexander-Universitat Erlangen-Nurnberg, priority 2016, dated 2021).
Each block holds one compound with its values, some of them ahead of it.

Assays:
[1] = target: hNTS2 (Homo sapiens, UniProt O95665); assay: competitive radioligand binding, hNTS2; settings: [^3H]NT (8-13); HEK
Experimental: (§1) Affinities for NTS1 and NTS2 as well as for dopaminergic and serotonergic receptors were determined in competitive radioligand binding assays using appropriate radioligands as shown in Table 1.

[2] = target: hNTS1 (Homo sapiens, UniProt P30989); assay: competitive radioligand binding, hNTS1; settings: [^3H]NT; CHO
Experimental: as §1

[3] = system: PC3; assay: Biodistribution in xenografted nude mice, PC3 tumor uptake; assay type: in vivo, Athymic nude mice (nu/nu); settings: i.v.
Experimental: (§2) Athymic nude mice (nu/nu) were obtained from Harlan Winkelmann GmbH (Borchen, Germany) at 4 weeks of age and were kept under standard conditions (12 h light/dark) with food and water available ad libitum. AsPC-1, PC-3 or HT29 cells were harvested and suspended in sterile PBS at a concentration of 2×10^7 cells/ml. Viable cells (2×10^6) in PBS (100 μL) were injected subcutaneously in the back. Two weeks after inoculation (tumor weight: 400-800 mg), the mice (about 10-12 weeks old with about 40 g body weight) were used for biodistribution studies.
(§3) The xenografted mice were injected with ^177Lu-14 (FAUC Lu469, 1 MBq/mouse) intravenously into the tail vein. The mice were sacrificed by cervical dislocation at 24 h and 48 h post-injection (p.i.). Tumors and other tissues (blood, lung, liver, kidneys, heart, brain, muscle and intestine) were removed and weighed. Radioactivity of the dissected tissues was determined using a γ-counter. Results were expressed as percentage of injected dose per gram of tissue (% ID/g), and tumor-to-organ ratios were calculated. Results are reported as percent injected dose per gram (% ID/g) in Table 2 and FIG. 1.

[4] = system: PC1-3 tumors; assay: Therapy study, PC1-3 tumors, single-dose administration; assay type: in vivo, Nude mice; settings: single dose 30±9 MBq/animal
Experimental: Nude mice bearing PC1-3 tumors at the back were used for the therapy study. One week after inoculation of the PC1-3 cells, ^177Lu-14 (FAUC Lu469) was injected in four mice at a dose of 30±9 MBq/animal. Eight additional animals were injected with saline as control animals. The body weight and the tumor diameter was measured every three days. […] The tumor inhibition growth factor was 64% after 49 days.

[5] = Biodistribution in xenografted nude mice, normal tissue; assay type: in vivo, Athymic nude mice (nu/nu); settings: i.v.
Experimental: as §2, §3

[6] = Stability in human plasma; assay type: in vitro ADME; settings: 37° C., up to 7 days
Experimental: An aliquot of ^177Lu-14 (FAUC Lu469) in PBS (50 μL) was added to human plasma (200 μL) and incubated at 37° C. Aliquots (25 μL) were taken at various time intervals (1 h, 4 h, 24 h, 96 h, 7 days) and quenched with acetonitrile/0.1% TFA (1:1, 100 μL). The samples were centrifuged, and the supernatants were analyzed by radio-HPLC.

[7] = system: AsPC1; assay: Biodistribution in xenografted nude mice, AsPC1 tumor uptake; assay type: in vivo, Athymic nude mice (nu/nu); settings: for Uptake AsPC1 tumor: i.v.
Experimental: as §2
as §3, with “The mice were sacrificed by cervical dislocation at 24 h and 48 h post-injection (p.i.).” left out

[8] = system: AsPC-1 tumors (human pancreas adenocarcinoma); assay: Therapy study, AsPC-1 tumors, single-dose and double-dose administration; assay type: in vivo, Nude mice
Experimental: Nude mice bearing AsPC-1 tumors (human pancreas adenocarcinoma) at the back were used for the therapy study. One week after inoculation of the AsPC-1 cells, six mice were injected with a single dose of ^177Lu-14 (FAUC Lu469) (28±6 MBq/animal, group B, single-dose administration) at day 0 and another six animals were injected with a double-dose of ^177Lu-14 (FAUC Lu469) (2×29±4 MBq/animal, group C, double-dose administration), consisting of the first dose (29 MBq/animal) at the starting day of radiotherapy (day 0) and the second dose (29 MBq/animal) at day 10 after begin of treatment. Six additional animals were injected with saline as untreated control animals (group A). The body weight and the tumor diameter were measured five times a week.

[9] = Determination of partition coefficient (log D7.4); assay type: physicochemical; settings: 1-octanol/PBS pH 7.4, room temperature
Experimental: The lipophilicity of ^177Lu-14 (FAUC Lu469) was assessed by determination of the water-octanol partition coefficient. 1-Octanol (0.5 mL) was added to a solution of approximately 25 kBq of ^177Lu-14 in PBS (0.5 mL, pH 7.4) and the layers were vigorously mixed for 3 min at room temperature. The tubes were centrifuged (14000 rpm, 1 min) and three samples of 100 μL of each layer were counted in a γ-counter (Wallac Wizard). The partition coefficient was determined by calculating the ratio cpm (octanol)/cpm (PBS) and expressed as log D74) log(cpmoctanol/cpmbuffer). The experiments were performed in triplicates. The log D7.4 value was determined to be −1.8±0.1 (mean value±standard deviation, n=6).

[10] = system: HT29; assay: Biodistribution in xenografted nude mice, HT29 tumor uptake; assay type: in vivo, Athymic nude mice (nu/nu); settings: i.v.
Experimental: as §2, §3

[11] = target: hD2short (Homo sapiens, UniProt P14416); assay: competitive radioligand binding, hD2short; settings: [^3H] spiperone
Experimental: as §1

[12] = target: pα1; assay: competitive radioligand binding, pα1; settings: [^3H] prazosine
[13] = target: hD2long (Homo sapiens, UniProt P14416); assay: competitive radioligand binding, hD2long; settings: [^3H] spiperone
Experimental: as §1

[14] = target: T1, hD4.4 (Homo sapiens, UniProt P21917); assay: competitive radioligand binding, hD4.4; settings: [^3H] spiperone
T1 sequence (P21917 1-419): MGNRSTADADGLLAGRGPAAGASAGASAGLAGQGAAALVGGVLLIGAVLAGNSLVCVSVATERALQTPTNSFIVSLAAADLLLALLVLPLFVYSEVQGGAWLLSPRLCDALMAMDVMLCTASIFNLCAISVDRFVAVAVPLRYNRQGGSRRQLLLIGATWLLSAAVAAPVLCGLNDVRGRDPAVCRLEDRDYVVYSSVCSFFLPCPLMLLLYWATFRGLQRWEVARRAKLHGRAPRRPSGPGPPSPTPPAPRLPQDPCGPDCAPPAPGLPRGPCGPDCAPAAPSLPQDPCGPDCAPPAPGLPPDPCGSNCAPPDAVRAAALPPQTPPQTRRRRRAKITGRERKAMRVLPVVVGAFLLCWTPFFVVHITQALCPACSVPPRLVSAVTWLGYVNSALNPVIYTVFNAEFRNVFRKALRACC
Experimental: as §1

[15] = target: hD1 (Homo sapiens, UniProt P21728); assay: competitive radioligand binding, hD1; settings: [^3H] SCH 23990
Experimental: as §1

[16] = target: T2, p5-HT1A (Sus scrofa, UniProt A0A4X1UTF5); assay: competitive radioligand binding, p5-HT1A; settings: [^3H] WAY600135
T2 sequence (A0A4X1UTF5 1-422): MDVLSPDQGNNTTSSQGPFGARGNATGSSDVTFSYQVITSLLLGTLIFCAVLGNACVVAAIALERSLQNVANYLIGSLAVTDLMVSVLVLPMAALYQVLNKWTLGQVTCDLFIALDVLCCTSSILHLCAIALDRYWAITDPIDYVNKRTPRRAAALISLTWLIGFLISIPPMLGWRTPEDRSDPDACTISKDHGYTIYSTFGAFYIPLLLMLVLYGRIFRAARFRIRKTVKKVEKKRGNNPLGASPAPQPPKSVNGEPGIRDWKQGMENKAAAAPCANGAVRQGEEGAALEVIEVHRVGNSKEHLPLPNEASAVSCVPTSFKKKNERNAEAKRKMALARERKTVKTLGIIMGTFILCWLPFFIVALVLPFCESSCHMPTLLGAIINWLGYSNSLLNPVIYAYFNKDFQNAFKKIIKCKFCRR
Experimental: as §1

[17] = target: h5-HT2 (Homo sapiens, UniProt P28223); assay: competitive radioligand binding, h5-HT2; settings: [^3H] ketanserin
Experimental: as §1

[18] = target: hD3 (Homo sapiens, UniProt P35462); assay: competitive radioligand binding, hD3; settings: [^3H] spiperone
Experimental: as §1

[19] = target: hD5 (Homo sapiens, UniProt P21918); assay: competitive radioligand binding, hD5; settings: [^3H] SCH 23990
Experimental: as §1

hNTS2, sequence (O95665 whole entry): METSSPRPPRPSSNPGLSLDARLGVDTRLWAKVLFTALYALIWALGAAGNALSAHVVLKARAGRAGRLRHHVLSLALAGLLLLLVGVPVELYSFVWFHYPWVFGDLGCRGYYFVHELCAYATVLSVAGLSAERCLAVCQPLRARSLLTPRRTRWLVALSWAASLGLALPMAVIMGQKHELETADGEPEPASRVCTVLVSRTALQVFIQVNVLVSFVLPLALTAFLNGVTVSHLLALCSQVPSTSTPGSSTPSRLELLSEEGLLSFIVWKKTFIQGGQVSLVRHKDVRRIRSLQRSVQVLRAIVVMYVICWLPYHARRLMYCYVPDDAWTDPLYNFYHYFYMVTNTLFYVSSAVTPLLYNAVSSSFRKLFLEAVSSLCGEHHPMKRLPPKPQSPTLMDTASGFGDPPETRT
hNTS1, sequence (P30989 whole entry): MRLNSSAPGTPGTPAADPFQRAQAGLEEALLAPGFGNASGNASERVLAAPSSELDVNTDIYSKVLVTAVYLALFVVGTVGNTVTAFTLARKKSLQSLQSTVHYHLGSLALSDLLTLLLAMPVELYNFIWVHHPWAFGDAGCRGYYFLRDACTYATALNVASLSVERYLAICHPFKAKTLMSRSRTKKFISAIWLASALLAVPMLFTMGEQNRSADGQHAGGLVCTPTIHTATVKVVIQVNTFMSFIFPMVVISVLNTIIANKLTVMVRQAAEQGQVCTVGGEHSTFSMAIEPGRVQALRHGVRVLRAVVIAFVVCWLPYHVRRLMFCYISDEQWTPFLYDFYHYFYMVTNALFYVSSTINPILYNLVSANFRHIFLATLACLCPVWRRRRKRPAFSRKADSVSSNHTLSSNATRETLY
hD2short, sequence (P14416 1-414 isoform P14416-2): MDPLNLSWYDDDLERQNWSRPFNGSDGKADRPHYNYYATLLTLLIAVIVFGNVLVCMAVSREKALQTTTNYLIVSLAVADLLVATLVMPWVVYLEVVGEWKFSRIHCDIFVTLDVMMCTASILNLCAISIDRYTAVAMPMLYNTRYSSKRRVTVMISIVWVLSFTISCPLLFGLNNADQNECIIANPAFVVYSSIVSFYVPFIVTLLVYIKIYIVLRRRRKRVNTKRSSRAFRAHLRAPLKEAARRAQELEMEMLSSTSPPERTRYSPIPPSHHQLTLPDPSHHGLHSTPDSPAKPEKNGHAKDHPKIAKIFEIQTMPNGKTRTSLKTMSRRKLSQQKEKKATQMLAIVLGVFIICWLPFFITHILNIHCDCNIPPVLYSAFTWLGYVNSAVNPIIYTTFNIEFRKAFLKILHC
hD1, sequence (P21728 whole entry): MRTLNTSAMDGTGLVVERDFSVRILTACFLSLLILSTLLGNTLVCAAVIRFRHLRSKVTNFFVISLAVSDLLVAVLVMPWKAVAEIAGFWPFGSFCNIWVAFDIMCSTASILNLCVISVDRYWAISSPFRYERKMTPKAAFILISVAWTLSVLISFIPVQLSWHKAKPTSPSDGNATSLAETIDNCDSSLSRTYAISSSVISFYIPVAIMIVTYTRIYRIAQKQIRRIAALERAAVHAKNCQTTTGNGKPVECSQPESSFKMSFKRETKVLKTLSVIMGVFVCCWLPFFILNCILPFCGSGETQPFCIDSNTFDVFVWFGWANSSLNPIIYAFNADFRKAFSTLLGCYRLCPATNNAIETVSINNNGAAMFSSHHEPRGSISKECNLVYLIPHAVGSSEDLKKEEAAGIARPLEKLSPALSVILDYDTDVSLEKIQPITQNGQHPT
hD3, sequence (P35462 whole entry): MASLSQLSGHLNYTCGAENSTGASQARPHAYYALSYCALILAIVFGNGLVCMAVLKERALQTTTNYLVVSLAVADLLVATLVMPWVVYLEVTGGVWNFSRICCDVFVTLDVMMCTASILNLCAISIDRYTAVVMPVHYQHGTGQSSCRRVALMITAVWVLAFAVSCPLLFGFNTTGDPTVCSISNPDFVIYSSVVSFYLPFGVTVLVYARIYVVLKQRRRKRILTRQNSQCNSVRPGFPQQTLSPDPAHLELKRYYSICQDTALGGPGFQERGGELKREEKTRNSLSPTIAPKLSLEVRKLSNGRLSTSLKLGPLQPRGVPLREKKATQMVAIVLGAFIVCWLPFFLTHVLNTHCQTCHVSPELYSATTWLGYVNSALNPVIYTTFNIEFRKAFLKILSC
hD2long, sequence (P14416 whole entry): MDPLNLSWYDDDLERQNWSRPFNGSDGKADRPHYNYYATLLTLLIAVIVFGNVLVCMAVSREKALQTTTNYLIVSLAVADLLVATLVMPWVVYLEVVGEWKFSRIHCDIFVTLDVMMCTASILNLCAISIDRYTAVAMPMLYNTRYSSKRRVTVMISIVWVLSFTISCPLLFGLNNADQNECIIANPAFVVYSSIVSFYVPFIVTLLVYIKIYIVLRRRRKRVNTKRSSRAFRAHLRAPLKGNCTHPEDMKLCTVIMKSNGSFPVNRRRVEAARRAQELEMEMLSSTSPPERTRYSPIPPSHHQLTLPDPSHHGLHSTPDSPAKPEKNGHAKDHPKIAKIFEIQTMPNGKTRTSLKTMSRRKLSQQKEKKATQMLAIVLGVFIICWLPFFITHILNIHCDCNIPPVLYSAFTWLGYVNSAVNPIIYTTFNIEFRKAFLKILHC
hD5, sequence (P21918 whole entry): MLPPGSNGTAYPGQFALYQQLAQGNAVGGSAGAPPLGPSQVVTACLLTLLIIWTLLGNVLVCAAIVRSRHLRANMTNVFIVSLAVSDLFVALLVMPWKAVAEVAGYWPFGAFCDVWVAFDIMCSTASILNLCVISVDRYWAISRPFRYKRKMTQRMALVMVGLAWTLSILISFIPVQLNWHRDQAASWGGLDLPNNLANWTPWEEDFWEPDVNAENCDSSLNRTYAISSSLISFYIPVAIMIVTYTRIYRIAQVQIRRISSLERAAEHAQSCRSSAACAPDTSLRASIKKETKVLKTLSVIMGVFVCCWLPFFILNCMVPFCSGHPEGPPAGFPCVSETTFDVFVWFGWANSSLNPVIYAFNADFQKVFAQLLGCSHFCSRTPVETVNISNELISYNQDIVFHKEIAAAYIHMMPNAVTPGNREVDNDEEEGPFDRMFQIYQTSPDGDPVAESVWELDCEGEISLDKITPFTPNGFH
h5-HT2, sequence (P28223 whole entry): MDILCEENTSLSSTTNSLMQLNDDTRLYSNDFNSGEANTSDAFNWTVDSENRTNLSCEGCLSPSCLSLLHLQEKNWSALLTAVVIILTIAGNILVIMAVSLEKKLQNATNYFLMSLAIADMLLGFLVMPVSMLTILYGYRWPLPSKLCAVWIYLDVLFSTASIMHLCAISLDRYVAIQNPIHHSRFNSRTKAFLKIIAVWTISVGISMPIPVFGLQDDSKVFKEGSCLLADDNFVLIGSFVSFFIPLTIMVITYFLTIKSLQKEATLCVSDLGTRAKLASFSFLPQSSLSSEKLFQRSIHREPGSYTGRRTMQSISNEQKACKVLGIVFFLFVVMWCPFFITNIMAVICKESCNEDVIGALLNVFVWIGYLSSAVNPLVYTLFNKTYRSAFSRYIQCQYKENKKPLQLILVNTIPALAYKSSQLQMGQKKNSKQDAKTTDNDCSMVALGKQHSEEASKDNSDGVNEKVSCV

Compound: COc1cccc(OC)c1-c1cc(C(=O)NC2(C(=O)O)C3CC4CC(C3)CC2C4)nn1-c1ccc(-c2cn(CCCN(C)CCCNC(=O)CN3CCN4CCN5CCN(CC3)CC(=O)[O][177Lu]([O]C(=O)C4)[O]C(=O)C5)nn2)cc1C(C)C (stereo not drawn) [^177Lu-14]
Uptake PC3 tumor ([3]; 24 h p.i.): 15.57 % ID/g
Uptake PC3 tumor ([3]; 48 h p.i.): 10.85 % ID/g
tumor inhibition growth factor ([4]; after 49 days): 64%
survival versus untreated control animals [4]: significantly longer survival
tumor growth and tumor size versus untreated control animals [4]: significantly inhibited tumor growth and a reduction in tumor size
Uptake blood ([5]; 24 h p.i.): 0.36 % ID/g
Uptake blood ([5]; 48 h p.i.): 0.14 % ID/g
Uptake brain ([5]; 24 h p.i.): 0.06 % ID/g
Uptake brain ([5]; 48 h p.i.): 0.04 % ID/g
Uptake femur ([5]; 24 h p.i.): 0.89 % ID/g
Uptake femur ([5]; 48 h p.i.): 0.75 % ID/g
Uptake heart ([5]; 24 h p.i.): 1.05 % ID/g
Uptake heart ([5]; 48 h p.i.): 0.56 % ID/g
Uptake intestine ([5]; 24 h p.i.): 1.40 % ID/g
Uptake intestine ([5]; 48 h p.i.): 0.77 % ID/g
Uptake kidney ([5]; 24 h p.i.): 4.54 % ID/g
Uptake kidney ([5]; 48 h p.i.): 2.48 % ID/g
Uptake liver ([5]; 24 h p.i.): 11.61 % ID/g
Uptake liver ([5]; 48 h p.i.): 5.45 % ID/g
Uptake lung ([5]; 24 h p.i.): 4.15 % ID/g
Uptake lung ([5]; 48 h p.i.): 1.23 % ID/g
Uptake muscle ([5]; 24 h p.i.): 0.29 % ID/g
Uptake muscle ([5]; 48 h p.i.): 0.19 % ID/g
Uptake spleen ([5]; 24 h p.i.): 2.40 % ID/g
Uptake spleen ([5]; 48 h p.i.): 1.60 % ID/g
Stability in human plasma (degradation products by radio-HPLC) [6]: No degradation products were observed
Uptake AsPC1 tumor ([7]; 24 h p.i.): 22.36 % ID/g
Uptake AsPC1 tumor ([7]; 48 h p.i.): 14.41 % ID/g
AsPC1-tumor retention ([7]; day 7 p.i.): 13.2±2.1 % ID/g
longer survival than untreated control animals ([8]; double-dose 2×29±4 MBq/animal (group C), day 0 and day 10): +209%
tumor growth and tumor size versus untreated control animals ([8]; single dose 28±6 MBq/animal (group B), between day 11 and 21, adjusted p=0.049): significant tumor growth inhibition and a reduction in tumor size
log D7.4 [9]: −1.8±0.1
Uptake HT29 tumor ([10]; 24 h p.i.): 18.64 % ID/g
Uptake HT29 tumor ([10]; 48 h p.i.): 16.34 % ID/g

Compound: COc1cccc(OC)c1-c1cc(C(=O)NC2(C(=O)O)C3CC4CC(C3)CC2C4)nn1-c1ccc(-c2cn(CCCN(C)CCCNC(=O)CN3CCN(CC(=O)[O-])CCN(CC(=O)[O-])CCN(CC(=O)[O-])CC3)nn2)cc1C(C)C.[Lu+3] (stereo not drawn) [Compound 14]
Ki [11]: > 50000 nM
Ki [12]: > 50000 nM
Ki [13]: > 50000 nM
Ki [1]: 13 nM
Ki [2]: 0.19 nM
Ki [14]: > 50000 nM
Ki [15]: > 50000 nM
Ki [16]: > 50000 nM
Ki [17]: > 50000 nM
Ki [18]: > 50000 nM
Ki [19]: > 50000 nM

Compound: COc1cccc(OC)c1-c1cc(C(=O)NC2(C(=O)O)C3CC4CC(C3)CC2C4)nn1-c1ccc(-c2cn(CCCN(C)C[C@@H](O)CNC(=O)CN3CCN(CC(=O)O)CCN(CC(=O)O)CCN(CC(=O)O)CC3)nn2)cc1C(C)C (stereo partly drawn) [Compound 19]
Ki [1]: 59 nM
Ki [2]: 1.6 nM

Other lines, results leading:

Ki [1]: 27 nM
Ki [2]: 1.4 nM
Compound: COc1cccc(OC)c1-c1cc(C(=O)NC2(C(=O)O)C3CC4CC(C3)CC2C4)nn1-c1ccc(-c2cn(CCCN(C)C[C@@H](O)CNC(=O)CN3CCN(CC(=O)[O-])CCN(CC(=O)[O-])CCN(CC(=O)[O-])CC3)nn2)cc1C(C)C.[Lu+3] (stereo partly drawn) [Compound 20]

Ki [1]: 100 nM
Ki [2]: 1.9 nM
Compound: COc1cccc(OC)c1-c1cc(C(=O)NC2(C(=O)O)C3CC4CC(C3)CC2C4)nn1-c1ccc(-c2cn(CCCN(C)CCCNC(=O)CN3CCN(CC(=O)O)CCN(CC(=O)O)CCN(CC(=O)O)CC3)nn2)cc1C(C)C (stereo not drawn) [Compound 13]
